Each structure is given as a SMILES string. pIC50: −log10 of the molar value. Active and inactive are the calls of the source. The rule behind the calls is not given here. Where only a bound is given, the exact number is not on record here.

From ChEMBL document CHEMBL1949618, “Synthesis and properties of mRNA cap analogs containing imidodiphosphate moiety--fairly mimicking natural cap structure, yet resistant to enzymatic hydrolysis” (Bioorg Med Chem, 2012) come the findings set out here.

Data set [1] can be described thus: Chemical stability of the compound in aqueous buffer at pH 6 assessed as decomposition at 5 mM up to 2 hrs by RP-HPLC. Particulars: pH 6, 2 h, 5000 µM. It counts as physicochemical.
Data set [2] can be described thus: Chemical stability of the compound in aqueous buffer at pH 6 assessed as decomposition at 5 mM after 24 hrs by RP-HPLC. Type of data set: physicochemical. The conditions noted are these: read-out: Drug degradation.
Another data set concerns Nucleic Acid. The data set can be described thus: Capping efficiency in mRNA after 60 mins by gel electrophoresis in the presence of SP6 polymerase. Type of data set: nucleic-acid assay.
A short description of data set [3]: Stability of the compound assessed as human recombinant DcpS -mediated hydrolysis after 2 hrs by HPLC. Type of data set: ADME.
Data set [4] in a line: Chemical stability of the compound in aqueous buffer at pH 2 assessed as decomposition at 5 mM up to 2 hrs by RP-HPLC. The conditions noted are these: pH 2, 2 h, 5000 µM. It counts as physicochemical.
Data set [5] is described as follows: Chemical stability of the compound in aqueous buffer at pH 8 assessed as decomposition at 5 mM up to 2 hrs by RP-HPLC. Type of data set: physicochemical. Particulars: pH 8, 2 h, 5000 µM.
A short description of data set [6]: Chemical stability of the compound in aqueous buffer at pH 2 assessed as decomposition at 5 mM after 24 hrs by RP-HPLC. Type of data set: physicochemical. The conditions noted are these: read-out: Drug degradation.
Data set [7] addresses Eukaryotic translation initiation factor 4E (Oryctolagus cuniculus) (UniProt P29338). The data set can be described thus: Inhibition of eIF4E-mediated mRNA translation in rabbit reticulocyte lysate assessed as translation efficiency after 60 mins by luciferase reporter gene assay relative to m7GpppG-capped mRNA.
Data set [8] deals with Eukaryotic translation initiation factor 4E (Homo sapiens) (UniProt P06730). The data set can be described thus: Binding affinity to recombinant eIF4E by fluorescence quenching titration method.
Eukaryotic translation initiation factor 4E (Homo sapiens), sequence (P06730 whole entry): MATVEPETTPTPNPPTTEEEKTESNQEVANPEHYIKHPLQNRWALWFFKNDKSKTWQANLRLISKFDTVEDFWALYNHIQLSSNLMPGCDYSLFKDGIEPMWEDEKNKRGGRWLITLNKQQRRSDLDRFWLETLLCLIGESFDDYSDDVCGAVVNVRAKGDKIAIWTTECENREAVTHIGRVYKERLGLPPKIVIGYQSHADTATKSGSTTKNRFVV
A short description of data set [9]: Stability of the compound at -20 degreeC after 12 months. Type of data set: physicochemical. Particulars: 8766 h.
Data set [10] can be described thus: Chemical stability of the compound in aqueous buffer at pH 8 assessed as decomposition at 5 mM after 24 hrs by RP-HPLC. Type of data set: physicochemical. Particulars: read-out: Drug degradation.
The target in data set [11] is T1, m7GpppX diphosphatase (Homo sapiens) (UniProt Q96C86).
T1 sequence (whole entry): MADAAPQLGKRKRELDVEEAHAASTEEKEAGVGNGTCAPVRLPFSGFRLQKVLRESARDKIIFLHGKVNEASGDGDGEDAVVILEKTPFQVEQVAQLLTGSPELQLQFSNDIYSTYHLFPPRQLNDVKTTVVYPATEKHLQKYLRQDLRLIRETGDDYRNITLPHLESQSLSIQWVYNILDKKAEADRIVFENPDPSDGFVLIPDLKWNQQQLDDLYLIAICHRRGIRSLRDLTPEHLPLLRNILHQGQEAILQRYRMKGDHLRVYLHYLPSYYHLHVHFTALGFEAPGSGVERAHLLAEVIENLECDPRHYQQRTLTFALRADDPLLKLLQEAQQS
Description: Binding affinity to human recombinant DcpS by fluorescence quenching titration method

Another data set is filed under the species Homo sapiens. The experiment in a line: Selectivity ratio of Ka for human recombinant DcpS to Ka for eIF4E.
The target of data set [12] is T2, Eukaryotic translation initiation factor 4E (Oryctolagus cuniculus, UniProt P29338). The data set can be described thus: Inhibition of eIF4E-mediated mRNA translation in rabbit reticulocyte lysate pre-incubated for 60 mins prior to mRNA addition by luciferase reporter gene assay.
T2 sequence (P29338 whole entry): as the sequence (P06730 whole entry) above, with T16P, T17A, E174D counted along it
The target in data set [13] is T2, Eukaryotic translation initiation factor 4E. The experiment in a line: Inhibition of eIF4E-mediated mRNA translation in rabbit reticulocyte lysate by luciferase reporter gene assay.
The next data set has as its system DcpS. The data set can be described thus: (§1) Stability of the compound assessed as human recombinant DcpS -mediated hydrolysis after 90 mins by HPLC. It counts as ADME. The conditions noted are these: human, recombinant DcpS; read-out: Drug degradation.
The nature of data set [14]: as §1. It counts as ADME. The conditions noted are these: 1.5 h.

Eukaryotic translation initiation factor 4E (Oryctolagus cuniculus), sequence (P29338 whole entry): as the sequence (P06730 whole entry) above, with T16P, T17A, E174D counted along it

In the case of `CO[C@@H]1[C@H](O)[C@@H](COP(=O)([O-])OP(=O)([O-])OP(=O)([O-])NP(=O)([O-])OC[C@H]2O[C@@H](n3cnc4c(=O)[nH]c(N)nc43)[C@H](O)[C@@H]2O)O[C@H]1n1c[n+](C)c2c(=O)[nH]c(N)nc21.[Na+].[Na+].[Na+]`, the Drug degradation result in [1] is on record as “Not Active”; in [3], “Active”; in data set [4] it was “Not Active”; in data set [5] it was “Not Active”. Further, the degraded at 24 h, 5000 µM in data set [2], in data set [6] and in data set [10] was below 10% throughout. Further, in the data set with Nucleic Acid, the result was Active. Further, the fold change (FC) in data set [7] worked out at 1.01. In addition, the Ka in data set [8] came out at 132 µM⁻¹. Besides, the Stability result in data set [9] is listed as “Stable”.
As to `CO[C@@H]1[C@H](O)[C@@H](COP(=O)([O-])NP(=O)([O-])OP(=O)([O-])OC[C@H]2O[C@@H](n3cnc4c(=O)[nH]c(N)nc43)[C@H](O)[C@@H]2O)O[C@H]1n1c[n+](C)c2c(=O)[nH]c(N)nc21.[Na+].[Na+]`, the Drug degradation result in data set [1], in data set [3], in data set [4] and in data set [5] was “Not Active” in each case. The degraded at 24 h, 5000 µM in [2], in data set [6] and in data set [10] was below 10% each time. The Ka was 33.6 µM⁻¹ in data set [11] and 18.5 µM⁻¹ in data set [8]. Also, the result in the data set on Nucleic Acid was Active. In [7], the fold change (FC) stood at 1.13. In [9], the Stability entry is listed as “Stable”. Further, the Ratio in the data set filed under Homo sapiens is 1.8.
As for `C[n+]1cn([C@@H]2O[C@H](COP(=O)([O-])OP(=O)([O-])NP(=O)([O-])OC[C@H]3O[C@@H](n4cnc5c(=O)[nH]c(N)nc54)[C@H](O)[C@@H]3O)[C@@H](O)[C@H]2O)c2nc(N)[nH]c(=O)c21.[Na+].[Na+]`, the Drug degradation result in [1], in [4] and in data set [5] was “Not Active” each time. Moreover, the degraded at 24 h, 5000 µM in [2], in data set [6] and in data set [10] was below 10% throughout. For the same molecule, the pIC50 in [12] was 5.22; in data set [13], 5.07. Also, the Ka in data set [8] is 10.1 µM⁻¹. Further, in [9], the Stability result is “Stable”. Also, the metabolised at 1.5 h with DcpS worked out at 20%.
On to `CO[C@@H]1[C@H](O)[C@@H](COP(=O)([O-])OP(=O)([O-])NP(=O)([O-])OC[C@H]2O[C@@H](n3cnc4c(=O)[nH]c(N)nc43)[C@H](O)[C@@H]2O)O[C@H]1n1c[n+](C)c2c(=O)[nH]c(N)nc21.[Na+].[Na+]`, for which the Drug degradation result in data set [1], in [4], in data set [5] and in data set [14] was “Not Active” each time. For the same molecule, the degraded at 24 h, 5000 µM in data set [2], in data set [6] and in data set [10] was below 10% each time. The Ka in [11] amounted to 12.8 µM⁻¹; in data set [8], 10.4 µM⁻¹. The outcome in the data set with Nucleic Acid was Active. Further, the fold change (FC) in [7] worked out at 1.11. Besides, the Stability result in [9] is “Stable”. In addition, the Ratio in the data set listed under Homo sapiens was 1.2.
For the molecule `CO[C@@H]1[C@H](O)[C@@H](COP(=O)([O-])NP(=O)(O)OP(=O)(O)OP(=O)(O)OC[C@H]2O[C@@H](n3cnc4c(=O)[nH]c(N)nc43)[C@H](O)[C@@H]2O)O[C@H]1n1c[n+](C)c2c(=O)[nH]c(N)nc21.N.N.N`, the Drug degradation entry in [1], in data set [3], in data set [4] and in data set [5] was “Not Active” throughout. For the same molecule, the degraded at 24 h, 5000 µM in data set [2], in [6] and in data set [10] was below 10% each time. The Ka in data set [11] came to 47.4 µM⁻¹; in data set [8] it was 125 µM⁻¹. In the data set with Nucleic Acid, the outcome was Active. The fold change (FC) in [7] amounted to 0.73. In addition, in data set [9], the Stability result is listed as “Stable”. Moreover, the Ratio in the data set filed under Homo sapiens was found to be 0.38.
